Data published in patent US9612243B1, “Methods and compositions for targeted two-dimensional western blot analysis for early cancer detection and cancer diagnosis up to ten years in advance of clinical symptoms of malignant disease” (Mor-NuCo Enterprises, Inc., priority 2016, dated 2017).

T1: ENOX2 (Homo sapiens, UniProt Q16206)
T1 sequence (Q16206 1-610): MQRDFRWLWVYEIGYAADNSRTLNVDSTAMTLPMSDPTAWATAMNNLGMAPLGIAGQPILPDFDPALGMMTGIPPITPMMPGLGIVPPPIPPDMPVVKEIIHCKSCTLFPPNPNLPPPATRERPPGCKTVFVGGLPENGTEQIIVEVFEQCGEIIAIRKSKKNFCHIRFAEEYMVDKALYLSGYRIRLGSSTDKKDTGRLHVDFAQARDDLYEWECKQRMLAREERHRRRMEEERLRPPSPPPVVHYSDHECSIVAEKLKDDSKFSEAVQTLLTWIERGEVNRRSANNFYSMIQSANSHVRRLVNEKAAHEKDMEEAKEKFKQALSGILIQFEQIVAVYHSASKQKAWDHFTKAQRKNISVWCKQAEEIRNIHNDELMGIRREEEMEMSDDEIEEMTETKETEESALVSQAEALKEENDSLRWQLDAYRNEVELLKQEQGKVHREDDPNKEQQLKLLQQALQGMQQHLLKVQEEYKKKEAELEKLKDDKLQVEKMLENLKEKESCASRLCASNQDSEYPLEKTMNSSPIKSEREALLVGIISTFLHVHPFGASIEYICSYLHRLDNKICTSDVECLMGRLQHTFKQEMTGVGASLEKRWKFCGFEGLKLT


Key:
[1] = molecular target: T1, ENOX2; assay: ENOX2 activity versus NADH concentration, Lineweaver-Burke plot with and without antibody; assay type: biochemical; details: FIG. 2
Description: FIG. 2 is a graph that depicts the relationship of ENOX2 activity and concentration of NADH.

[2] = molecular target: T1, ENOX2; assay: 2-D gel electrophoresis/western blot, incubation with 15 μM NADH compared to no NADH; details: 15 μM NADH in the assay compared to no NADH, FIG. 1
Experimental: In order to maintain an active ENOX2 during western blotting with antibody, following blocking for 10 minutes with 1% milk and two rinses with TBST to remove excess milk, reduced pyridine nucleotides [NAD(P)H] were added at a concentration of 15 μM during incubation with the primary scFv antibody. NADH is preferred at a final concentration in the range of 10 μM. Incubation of the blot with antibody with or without shaking at any temperature between 4° C. and 40° C. for times of 1 to 16 hours depending on the concentration of NADH, the temperature and the antibody titer, preferably with incubation at 4° C. overnight (approximately 16 hours) with shaking.

[3] = system: heavy (ca. 52 kDa) and light (ca. 25 kDa) immunoglobulin chain proteins; assay: 2-D gel/western blot cross-reactivity with serum proteins; assay type: binding, human; details: on some blots
Description: Separation in the first dimension was by isoelectric focusing over the pH range of 3 to 10 and separation in the second dimension was by 10 percent SDS-PAGE. Isoelectric points of the ENOX2 transcript variants were in the range of 3.2 to 6.3. The principal reactive proteins other than the ENOX2 forms were a 53 kDa isoelectric point pH 4.1, mostly phosphorylated alpha-fetuin (Labeled “R” in FIG. 8) which served as a convenient loading control and isoelectric point reference and a 79-85 kDa, isoelectric point pH 6.8 serotransferrin which served as a second point of reference for loading and as an isoelectric point reference. The two cross reactive reference proteins are present in a majority of sera and plasma of both cancer and non-cancer subjects.
For western blot analysis, 30 μL of sera was added to 120 μL of Rehydration Buffer (7M urea, 2 M thiourea, 2% (w/v) CHAPS [(3-[(3-cholamidopropyl)dimethylammonio]-1-propane-sulfonate), a nondenaturing zwitterionic detergent], 0.5% (w/v) ASB-14 (amidosulfobetaine-14, a zwitterionic detergent), 0.5% (v/v) ampholytes pH 3-10 (Bio-Rad), 0.5% (v/v) immobilized pH gradient (IPG) buffer pH 3-10 (Amersham-Pharmacia Biotech) and 65 mM dithiothreitol). The samples were quickly vortexed to mix sera with Rehydration Buffer. Four to six mg of protein were loaded for analysis. […] Quantitation utilized an algorithm developed for this purpose. […]

Molecule	NADH concentration at which maximum ENOX2 activity was achieved [1]	increase in spot size and density of ENOX2 [2]	cross-reactivity with immunoglobulin chain proteins [3]
NC(=O)C1=CN([C@@H]2O[C@H](COP(=O)(O)OP(=O)(O)OC[C@H]3O[C@@H](n4cnc5c(N)ncnc54)[C@H](O)[C@@H]3O)[C@@H](O)[C@H]2O)C=CC1 [NADH]	about 500 μM	two-fold increase	
recombinant scFv: pan ENOX2 recombinant single chain variable region (scFv) antibody carrying an S tag, alkaline phosphatase linked (antibody, V domains shown, left off: things letters cannot carry; another chain or arm of the molecule; a dimerising Fc or GST; small tags and cut ends, pan ENOX2 recombinant single chain variable region (scFv) antibody carrying an S tag, alkaline phosphatase linked) VH: EVKLQESGTEVVKPGASVKLSCKASGYIFTSYDIDWVRQTPEQGLEWIGWIFPGEGSTEYNEKFKGRATLSVDKSSSTAYMELTRLTSEDSAVYFCARGDYYRRYFDLWGQGTTVTVSS VL: ENVLTQSPAIMSASPGERVTMTCSASSSIRYIYWYQQKPGSSPRLLIYDTSNVAPGVPFRFSGSGSGTSYSLTINRMEAEDAATYYCQEWSGYPYTFGGGTKLELK			weakly cross-reactive
